Publication PMC3214022, “Plasmodium falciparum Parasites Are Killed by a Transition State Analogue of Purine Nucleoside Phosphorylase in a Primate Animal Model” (PLoS ONE, 2011)

Assay: Weights, CBC, blood chemistry and signs of toxicity, Table S1 sheet PD-2 (infected Aotus, twice a day for seven days)
Assay type: in vivo, Aotus lemurinus lemurinus
Conditions: oral 10 mg/kg twice a day/7 days, 25044 Male (ITM2)
Procedure: Laboratory bred Aotus lemurinus lemurinus monkeys (0.75–0.89 kg) were maintained as described. […] Blood samples were collected before the treatment started (t = 0), 0.05 h, 0.5 h, 1 h, 2 h, 6 h, 24 h, 48 h, and 6, 12 and 18 days after the first dose from each monkey and processed as described below. Pharmacokinetic parameters were calculated using PKSolver. For efficacy studies, Aotus monkeys were inoculated intravenously with 5×10^6 parasites of the FVO strain of P. falciparum in an approved treatment protocol. […] Parasitaemia was determined by Giemsa-stained thick blood smears prepared daily from the marginal ear vein [41]. Blood samples were collected from each monkey and transferred to tubes containing lithium heparin, centrifuged and both plasma and blood cells were frozen at −80 °C until analysis. Animals received a physical examination and blood chemistry profiles were monitored after treatment as described previously. Any monkey not responding appropriately to treatment was cured of its infection with mefloquine (40 mg kg^−1). […] The day of clearance is defined as the first of three consecutive days in which the thick blood films are parasite negative. The day of recrudescence is the first of three consecutive days of positive thick blood films after a period of clearance. Suppression is defined as a transient decrease in the parasite count post-treatment without clearance.

## Nc1nc2c(CN3CC(O)C(CO)C3)c[nH]c2c(=O)[nH]1 (stereo not shown) [BCX4945, 4′-deaza-1′-aza-2′-deoxy-1′-(9-methylene)-Immucillin-G]
Day 8
  Blood Urea Nitrogen: 14.7 mg/dL
  Creatine: 0.5 mg/dL
  Erythrocytes: 4.72e+06 µL⁻¹
  Glutamate Pyruvate Transaminase: 18.8 U/L
  Granulocytes (%): 14.6%
  Granulocytes (x 103/ul): 2.8 x 103/ul
  Hematocrit: 36.6%
  Hemoglobin: 12.9 g/dL
  Leucocytes: 18900 µL⁻¹
  Lymphocytes (%): 74.4%
  Lymphocytes (x 103/ul): 14.1 x 103/ul
  Mean Corpuscular Volume: 77.6 fL
  Mean Hemoglobin Content: 35.3 g/dL
  Mean Platelet Volume: 11.8 fL
  Monocytes (%): 11%
  Monocytes (x 103/ul): 2.1 x 103/ul
  Platelets: 276000 µL⁻¹
  Red Cell Distribution Width: 16.9%
  Reticulocytes: 1.8%
  WEIGHT: 820 g
Day 12
  Blood Urea Nitrogen: 12.6 mg/dL
  Creatine: 0.5 mg/dL
  Erythrocytes: 4.24e+06 µL⁻¹
  Glutamate Pyruvate Transaminase: 48.0 U/L
  Granulocytes (%): 20%
  Granulocytes (x 103/ul): 2.6 x 103/ul
  Hematocrit: 33.5%
  Hemoglobin: 11.4 g/dL
  Leucocytes: 13200 µL⁻¹
  Lymphocytes (%): 68.9%
  Lymphocytes (x 103/ul): 9.1 x 103/ul
  Mean Corpuscular Hemoglobin: 27 pg
  Mean Corpuscular Volume: 78.9 fL
  Mean Hemoglobin Content: 34.2 g/dL
  Mean Platelet Volume: 9.6 fL
  Monocytes (%): 11.1%
  Monocytes (x 103/ul): 1.5 x 103/ul
  Platelets: 264000 µL⁻¹
  Red Cell Distribution Width: 20.2%
  Reticulocytes: 3.8%
  WEIGHT: 840 g
Day 15
  Blood Urea Nitrogen: 13.8 mg/dL
  Creatine: 0.5 mg/dL
  Erythrocytes: 4.68e+06 µL⁻¹
  Glutamate Pyruvate Transaminase: 29.1 U/L
  Granulocytes (%): 11.9%
  Granulocytes (x 103/ul): 3.4 x 103/ul
  Hematocrit: 38.8%
  Hemoglobin: 13.6 g/dL
  Leucocytes: 28300 µL⁻¹
  Lymphocytes (%): 78.1%
  Lymphocytes (x 103/ul): 22.1 x 103/ul
  Mean Corpuscular Hemoglobin: 29 pg
  Mean Corpuscular Volume: 83 fL
  Mean Hemoglobin Content: 34.9 g/dL
  Mean Platelet Volume: 12.8 fL
  Monocytes (%): 10%
  Monocytes (x 103/ul): 2.8 x 103/ul
  Platelets: 258000 µL⁻¹
  Red Cell Distribution Width: 23.1%
  Reticulocytes: 2.6%
  WEIGHT: 830 g
Day 18
  Blood Urea Nitrogen: 15.2 mg/dL
  Creatine: 0.5 mg/dL
  Erythrocytes: 4.88e+06 µL⁻¹
  Glutamate Pyruvate Transaminase: 22.3 U/L
  Granulocytes (%): 15.5%
  Granulocytes (x 103/ul): 2.7 x 103/ul
  Hematocrit: 40.6%
  Hemoglobin: 13.7 g/dL
  Leucocytes: 17100 µL⁻¹
  Lymphocytes (%): 78%
  Lymphocytes (x 103/ul): 13.3 x 103/ul
  Mean Corpuscular Hemoglobin: 28.1 pg
  Mean Corpuscular Volume: 83.2 fL
  Mean Hemoglobin Content: 33.8 g/dL
  Mean Platelet Volume: 12.1 fL
  Monocytes (%): 6.5%
  Monocytes (x 103/ul): 1.1 x 103/ul
  Platelets: 247000 µL⁻¹
  Red Cell Distribution Width: 22.6%
  Reticulocytes: 2.2%
  WEIGHT: 820 g
Day 25
  Erythrocytes: 4.04e+06 µL⁻¹
  Granulocytes (%): 11.4%
  Granulocytes (x 103/ul): 2.3 x 103/ul
  Hematocrit: 34.8%
  Leucocytes: 19900 µL⁻¹
  Lymphocytes (%): 79.1%
  Lymphocytes (x 103/ul): 15.7 x 103/ul
  Mean Corpuscular Hemoglobin: 27.6 pg
